Data: ChEMBL document CHEMBL1255181, “Synthesis and in vitro evaluation of N-alkyl-7-methoxytacrine hydrochlorides as potential cholinesterase inhibitors in Alzheimer disease” (Bioorg Med Chem Lett, 2010)
Active and inactive are the calls of the source. The calls are words filed in the database; no cut-off is given here.

Tests used:
Cholinesterase [1] = target: T1, Cholinesterase (Homo sapiens, UniProt P06276)
Description: Inhibition of human plasmatic BChE after 5 mins

Acetylcholinesterase = Acetylcholinesterase (Homo sapiens, UniProt P22303)
Description: Inhibition of human recombinant AChE after 5 mins

Cholinesterase [2] = target: T1, Cholinesterase; assay: Inhibition of human plasmatic BChE at 1 mM to 0.1 nM after 5 mins; format: cell-free; conditions: Plasma

Acetylcholinesterase, sequence (P22303 whole entry): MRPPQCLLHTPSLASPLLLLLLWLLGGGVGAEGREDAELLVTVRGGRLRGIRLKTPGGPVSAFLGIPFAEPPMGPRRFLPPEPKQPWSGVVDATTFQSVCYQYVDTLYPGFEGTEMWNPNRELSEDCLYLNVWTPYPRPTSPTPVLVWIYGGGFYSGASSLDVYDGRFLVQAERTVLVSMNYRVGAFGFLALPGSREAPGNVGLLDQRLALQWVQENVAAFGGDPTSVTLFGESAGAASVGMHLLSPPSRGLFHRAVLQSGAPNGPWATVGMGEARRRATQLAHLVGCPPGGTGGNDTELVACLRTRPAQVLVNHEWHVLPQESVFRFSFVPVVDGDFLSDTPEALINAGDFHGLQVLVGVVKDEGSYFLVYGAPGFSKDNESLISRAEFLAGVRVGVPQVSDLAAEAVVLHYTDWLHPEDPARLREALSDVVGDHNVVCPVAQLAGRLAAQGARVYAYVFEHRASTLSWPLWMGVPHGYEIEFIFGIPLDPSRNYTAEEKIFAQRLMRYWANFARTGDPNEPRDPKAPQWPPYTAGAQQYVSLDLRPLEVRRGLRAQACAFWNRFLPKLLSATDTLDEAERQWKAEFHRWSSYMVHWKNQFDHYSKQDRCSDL
T1 sequence (P06276 whole entry): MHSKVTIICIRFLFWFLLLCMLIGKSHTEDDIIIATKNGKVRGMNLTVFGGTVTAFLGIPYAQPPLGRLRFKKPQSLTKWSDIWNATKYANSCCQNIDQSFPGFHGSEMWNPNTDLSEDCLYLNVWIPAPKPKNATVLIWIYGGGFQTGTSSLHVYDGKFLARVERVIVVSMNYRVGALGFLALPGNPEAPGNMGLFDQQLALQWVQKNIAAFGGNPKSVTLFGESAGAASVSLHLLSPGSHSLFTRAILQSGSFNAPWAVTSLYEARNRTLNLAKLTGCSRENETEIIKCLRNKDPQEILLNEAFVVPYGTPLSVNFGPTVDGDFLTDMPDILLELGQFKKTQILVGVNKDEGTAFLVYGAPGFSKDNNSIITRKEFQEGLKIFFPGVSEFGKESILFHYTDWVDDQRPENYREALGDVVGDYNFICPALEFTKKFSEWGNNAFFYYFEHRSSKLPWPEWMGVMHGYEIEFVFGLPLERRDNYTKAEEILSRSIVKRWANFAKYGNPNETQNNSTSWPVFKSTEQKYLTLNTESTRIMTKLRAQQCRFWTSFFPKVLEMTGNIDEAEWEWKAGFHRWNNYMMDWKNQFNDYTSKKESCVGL

Structure (SMILES) | IC50 (Cholinesterase [1]) [µM] | IC50 (Acetylcholinesterase) [µM] | inhibition (Cholinesterase [2])
CCCCCCCCCNc1c2c(nc3ccc(OC)cc13)CCCC2 | 0.36 | 1.6 | –
CCCCCCCCCCCCCCCNc1c2c(nc3ccc(OC)cc13)CCCC2 | – | – | inactive
CCCNc1c2c(nc3ccc(OC)cc13)CCCC2 | 70 | 9.2 | –
CCCCCCCCCCNc1c2c(nc3ccc(OC)cc13)CCCC2 | – | – | inactive
CCNc1c2c(nc3ccc(OC)cc13)CCCC2 | 97 | 66 | –
CCCCCCCCNc1c2c(nc3ccc(OC)cc13)CCCC2 | 0.12 | 0.36 | –
CCCCCCCCCCCCCCNc1c2c(nc3ccc(OC)cc13)CCCC2 | – | 46 | inactive
CCCCCCCCCCCCCNc1c2c(nc3ccc(OC)cc13)CCCC2 | – | 100 | inactive
CCCCNc1c2c(nc3ccc(OC)cc13)CCCC2 | 64 | 21 | –
CCCCCCCNc1c2c(nc3ccc(OC)cc13)CCCC2 | 0.04 | 0.27 | –
CCCCCNc1c2c(nc3ccc(OC)cc13)CCCC2 | 16 | 6.7 | –
CCCCCCCCCCCNc1c2c(nc3ccc(OC)cc13)CCCC2 | – | – | inactive
CCCCCCNc1c2c(nc3ccc(OC)cc13)CCCC2 | 1 | 0.1 | –
CCCCCCCCCCCCNc1c2c(nc3ccc(OC)cc13)CCCC2 | – | 1 | inactive
